This test concerns the target T1, t-PA (Homo sapiens, UniProt P00750).
T1 construct: The t-PA purified from human melanoma (Bowes) cell culture; host or cells: Bowes human melanoma cell culture (purified t-PA)
Kind of test: Amidolytic plasmin assay: activation of plasminogen by t-PA (S-2251 substrate). In kind it is biochemical. The note with it: no fibrinogen fragments; 0.09 nM t-PA, 0.42 μM plasminogen, 25° C.

T1 sequence (P00750 36-562): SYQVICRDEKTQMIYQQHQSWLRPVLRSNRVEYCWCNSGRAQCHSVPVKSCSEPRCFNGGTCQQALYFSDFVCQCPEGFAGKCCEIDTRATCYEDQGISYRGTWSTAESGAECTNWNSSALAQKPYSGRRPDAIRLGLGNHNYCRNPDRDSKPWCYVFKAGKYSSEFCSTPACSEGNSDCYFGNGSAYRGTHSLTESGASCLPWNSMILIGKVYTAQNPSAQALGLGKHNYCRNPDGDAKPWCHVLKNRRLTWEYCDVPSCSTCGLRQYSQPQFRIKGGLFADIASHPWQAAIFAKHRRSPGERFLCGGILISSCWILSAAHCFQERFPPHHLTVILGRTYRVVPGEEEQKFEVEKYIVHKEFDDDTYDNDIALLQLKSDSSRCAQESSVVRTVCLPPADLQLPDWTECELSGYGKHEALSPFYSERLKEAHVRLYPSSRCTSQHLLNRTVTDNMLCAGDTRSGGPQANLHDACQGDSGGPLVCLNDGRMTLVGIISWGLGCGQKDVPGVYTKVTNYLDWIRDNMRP
Protocol: The assay defects lysis of the amide bond of plasminogen in determining their "amidolytic plasmin activity."
The ability of unfractionated HMW-heparin to stimulate amidolytic plasmin activity of a mixture of Lys-plasminogen or Glu-plasminogen and t-PA was measured according to the protocol, previously published by the inventors herein in Biochemistry, 25, 4033 (1986) (hereinafter "the Biochemistry Paper").
To a buffered solution of 200 ul of 0.1M Tris-HCl, pH 8.1, 0.1% (V/V) Tween 80, 0.3 mM chromogenic plasmin substrate H-D-Val-Leu-Lys-pNA (S-2251, Kabi, Sweden) was added. To this mixture, HMW-heparin fractions (the Ca and Na salts, respectively) in concentrations ranging from 0 to 25 units/ml and 0.42 μM Glu- or Lys- plasminogen were added. […]
The solutions were incubated in microliter plates at 25° C. The change in absorbance (ΔA) at 405 nm was measured against blanks without t-PA in a Bio-Tek model EL-308 microplate reader.
It should be noted that plasmin activity was actually being measured in this assay and that the plasmin concentration was increasing as a function of time due to the action of the plasminogen activators on plasminogen. Thus, plots of absorbance vs. time are parabolic, whereas plots of absorbance vs. time squared are linear. Therefore, the slopes of plots of absorbance vs. time squared were used as a measure of the rate (VO) of plasmin generation. […]

On to `[Cl-].[Na+]` [NaCl], for which the “effect on amidolytic plasmin activity (plasmin generation) of t-PA-plasminogen mixture” value is given as “did not cause a marked decrease”.

For the origin of these results see US5130143A, “Use of a low affinity-heparin fraction in conjunction with t-PA for thrombolytic therapy” (The Research Foundation of State University of New York, priority 1988, dated 1992).
